Measured values: US7629354B2, “Use of phanquinone for the treatment of Alzheimer's disease” (Prana Biotechnology Limited, priority 1997, dated 2009)

Legend:
[1] = in vivo; cited from earlier work
[2] = Solubility in water / aqueous solutions; assay type: physicochemical
[3] = 1H NMR study of the interaction of vitamin B12 with clioquinol glucuronide; assay type: binding; settings: 2.6 mM vitamin B12 and 10 mM clioquinol glucuronide, buffered water pH=6.5, 20° C.
Description: Three different solutions were prepared and their 1H NMR spectra were recorded in a DRX 400 MHz spectrophotometer at 20° C. Solution a) contained free vitamin B12 (hydroxycobalamin) in a concentration of 2.6 mM.
In FIG. 5 the spectra of the three solutions are presented for the aromatic region (5.5-9.8 ppm). The differences are quite small but obvious in the expansion shown of FIG. 6 and FIG. 7, respectively.

[4] = target: T1, Aβ(1-40) (Homo sapiens, UniProt P05067); assay: Thioflavin T fluorometric assay of Cu2+-induced Aβ(1-40) aggregation; assay type: biochemical; settings: test compound 10 μg/ml; Aβ(1-40) 100 μM; 24 hours, room temperature
T1 construct: A 5 mg/ml stock solution of Aβ(1-40) (delivered from Bachem (CH)) was freshly prepared; purchased Bachem (CH)
T1 sequence (P05067 672-711): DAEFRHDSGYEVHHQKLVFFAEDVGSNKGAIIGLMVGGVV
Description: (§1) A 5 mg/ml stock solution of Aβ(1-40) (delivered from Bachem (CH)) was freshly prepared before each experiment by dissolving the lyophilised peptide in 0.01 M HCl, followed by subsequent dilution 1:1 with 0.01 M NaOH to yield a neutral pH. Aliquot of Aβ(1-40) were diluted in PBS (pH 7.4) to 100 μM and incubated at a total volume of 30 μl for 24 hours at room temperature. For co-incubation experiments, the indicated concentrations of metal ions and/or aliquot of test compounds were added. The test compounds were added to a final […] concentration of 10 μg/ml.
(§2) The amyloid formation was quantified by a thioflavin T fluorometric assay. Thioflavin binds specifically to amyloid and this introduces a shift in its emission spectrum and a fluorescent signal proportional to the amount of amyloid is formed. After incubation, Aβ(1-40) peptides were added to PBS (pH 6.0) and 3 μM thioflavin T in a final volume of 1 ml. Fluorescence was monitored at excitation 454 nm and emission 482 nm using a Fluoroscan II fluorometer (Molecular devices, UK). A time scan of fluorescence was performed and three values after the decay reached a plateau (around 5 minutes) were averaged after subtracting the background fluorescence of 3 μM thioflavin T. For co-incubation experiments, fluorescence of test compound alone was determined. Samples were run in triplicate. […]

[5] = target: T1, Aβ(1-40); assay: Thioflavin T fluorometric assay of Zn2+-induced Aβ(1-40) aggregation; assay type: biochemical; settings: test compound 10 μg/ml; Aβ(1-40) 100 μM; 24 hours, room temperature
Description: as §1, §2

[6] = test system: PC12 cells; assay: MTT reduction (cell redox activity) in PC12 cells exposed to Aβ(25-35); assay type: cell-based, Rat
Description: Aβ(25-35) was delivered by Bachem (CH) or Sigma (USA) and dissolved in phosphate buffered saline (PBS) at pH 7.4, 2 hours prior to application.
Rat PC12 pheochromocytoma cells were grown in Dulbecco's modified Eagle's medium (DMEM) containing 1% penicillin-streptomycin, 5% fetal calf serum and 10% horse serum in humidified incubator with 5% CO2.
PC12 cells were plated on 96-wells microtiter plates in 100 μl of the appropriate medium. After 24 hours the indicated concentrations of Aβ(25-35) peptide was added alone or together with phanquinone in the designated concentrations. Incubation continued for 24 hours. Following incubation, MTT reduction was measured using a commercially available assay according to the manufacturer's (Boehringer Mannheim) instructions. Assay values obtained by vehicle alone were defined as 100%.
MTT is a substrate for intracellular and plasma membrane oxidoreductases and has been widely used to measure reductions of cell redox activity.
To test the effect of phanquinone on Aβ(25-35) induced toxicity in PC12 cells, PC12 cells were exposed to Aβ(25-35) peptide concentrations ranging from 0 to 10 μM. In the absence of phanquinone (i.e. only vehicle added) Aβ(25-35) produced a dose-dependent inhibition of MTT reduction (FIG. 1, filled-in circles).
In this study the same materials and methods as in example 1 were used, except that the PC12 cells were exposed to a fixed Aβ concentration of 1 μM, whereas the concentration of phanquinone was varied between 0 and 10 μg/ml. […] This inhibition was maintained in the presence of up to 0.1 μg phanquinone per ml.

CCN(CC)C(=S)SSC(=S)N(CC)CC [Disulfiram]
adverse side effects [1]: severe adverse reactions

COC(=O)C1OC(Oc2c(I)cc(Cl)c3cccnc23)C(OC(C)=O)C(OC(C)=O)C1OC(C)=O (centres unmarked) [clioquinol glucuronide, methyl(5-chloro-7-iodo-quinolyl-2′,3′,4′-tri-O-acetyl-glucopyranosid)uronate]
solubility in water [2]: soluble in water | interaction with vitamin B12 (shift of 1H NMR resonances) [3]: interaction between clioquinol glucuronide and vitamin B12, possibly of a hydrophobic nature

Oc1c(I)cc(Cl)c2cccnc12 [clioquinol, 5-chloro-7-iodo-8-hydroxyquinoline]
solubility in water [2]: cannot be dissolved in aqueous solutions | reduction of Cu2+-induced aggregation of Aβ(1-40) [4]: approximately 30% | reduction of Zn2+-induced aggregation of Aβ(1-40) [5]: more than 60% | adverse side effects [1]: causes subacute myelo-optico-neuropathy (SMON)

O=C1C(=O)c2ncccc2-c2cccnc21 [phanquinone, 4,7-phenanthroline-5,6-dione]
redox activity of Aβ(25-35)-treated cells ([6]; 1 μM Aβ(25-35), 1 μg/ml phanquinone or more): normal redox activity is restored | toxic effect of Aβ ([6]; 10 μg phanquinone per ml, Aβ as high as 1 μM): completely counteracted | toxic effect of Aβ(25-35) ([6]; 10 μg phanquinone per ml, Aβ(25-35) 0 to 10 μM): virtually abolished | toxic effect of Aβ(25-35) ([6]; Aβ 1 μM, phanquinone 1 μg/ml and above): completely abolished | toxic effect of Aβ(25-35) ([6]; Aβ 1 μM, phanquinone above 0.1 μg/ml): drastic reduced toxic effect | inhibition of MTT reduction by Aβ(25-35) ([6]; Aβ 1 μM, up to 0.1 μg phanquinone per ml): maintained | reduction of Cu2+-induced aggregation of Aβ(1-40) [4]: 50-60% | adverse side effects [1]: no adverse side effects have been detected

Aβ(25-35): peptide sequence between amino acid residues 25 and 35 of Aβ, delivered by Bachem or Sigma (GSNKGAIIGLM; Amyloid-beta protein 42; UniProt P05067 696-706, looked up, fragment)
redox activity of cells, of the normal level ([6]; 1 μM Aβ(25-35)): 60% | inhibition of MTT reduction ([6]; Aβ(25-35) 1 μM, absence of phanquinone): approximately 40% | inhibition of MTT reduction ([6]; Aβ(25-35) 10 μM, absence of phanquinone): approximately 50% | inhibition of MTT reduction ([6]; Aβ(25-35) as low as 0.01 μM): significant reduction | MTT reduction reduced to a maximum level ([6]; Aβ(25-35) on or above 0.1 μM, absence of phanquinone): about 50%
